Patent US11187705B2, “Method for labeling specifically living microorganisms comprising the use of modified monosaccharide compounds” (CENTRE NATIONAL DE LA RECHERCHE SCIENTIFIQUE (CNRS), priority 2015, dated 2021)

Experiments:
Type in all cases: cell-based
Aspergillus niger = conditions: for labeling (fluorescence, metabolic incorporation of the chemical reporter): 10 mM, 24 hours, Laboratory strain; for assimilation by the microorganism (in words): Aspergillus niger
Micrococcus luteus = conditions: for labeling (fluorescence, metabolic incorporation of the chemical reporter): 10 mM, 24 hours, Laboratory strain; for assimilation by the microorganism (in words): Micrococcus luteus
Neisseria meningitides = conditions: 10 mM, 24 hours; CIP 107858
[1] = tested on: Salmonella typhimurium 12023; conditions: 10 mM, 24 hours; Laboratory strain
[2] = tested on: Pseudomonas fluorescens Paris; conditions: 10 mM, 24 hours; Laboratory strain
Cronobacter sakazakii = conditions: 10 mM, 24 hours; CIP 103183T
Proteus mirabills = conditions: 10 mM, 24 hours; Clinical strain
Acinetobacter baumannii = conditions: 10 mM, 24 hours; ATCC 17978
[3] = tested on: Klebsiella pneumoniae (second entry); conditions: 10 mM, 24 hours; second Klebsiella pneumoniae line (Table 1 order: Clinical strain)
[4] = tested on: Listeria monocytogenes 1/2; conditions: for labeling (fluorescence, metabolic incorporation of the chemical reporter): 10 mM, 24 hours, CIP 82.110pT; for assimilation by the microorganism (in words): Listeria monocytogenes
[5] = tested on: Klebsiella pneumoniae (first entry); conditions: 10 mM, 24 hours; first Klebsiella pneumoniae line (Table 1 order: CIP 101114)
Providencia stuartii = conditions: 10 mM, 24 hours; Clinical strain
Neisseria gonorrhoeae = conditions: for labeling (fluorescence, metabolic incorporation of the chemical reporter): 10 mM, 24 hours, CIP 79.18T; for assimilation by the microorganism (in words): Neisseria gonorrhoeae
Vibrio cholerae = conditions: 10 mM, 24 hours; CIP 104151
Candida albicans = conditions: for labeling (fluorescence, metabolic incorporation of the chemical reporter): 10 mM, 24 hours, Laboratory strain; for assimilation by the microorganism (in words): Candida albicans
[6] = tested on: Legionella pneumophila sg1 Paris; conditions: 10 mM, 24 hours; CIP 33152
Escherichia coli K12 = conditions: 10 mM, 24 hours; MG1655
Escherichia coli O86 = conditions: 10 mM, 24 hours; Laboratory strain
Enterococcus faecalis = conditions: for labeling (fluorescence, metabolic incorporation of the chemical reporter): 10 mM, 24 hours, Laboratory strain; for assimilation by the microorganism (in words): Enterococcus faecalis
Bacillus subtilis = conditions: for labeling (fluorescence, metabolic incorporation of the chemical reporter): 10 mM, 24 hours, Laboratory strain; for assimilation by the microorganism (in words): Bacillus subtilis
Staphylococcus aureus = conditions: for labeling (fluorescence, metabolic incorporation of the chemical reporter): 10 mM, 24 hours, Clinical strain; for assimilation by the microorganism (in words): Staphylococcus aureus
[7] = tested on: Stenotrophomonas maltophilia; conditions: 10 mM, 24 hours; Clinical strain
[8] = tested on: Staphylococcus aureus aureus; conditions: for labeling (fluorescence, metabolic incorporation of the chemical reporter): 10 mM, 24 hours, IP 53-156; for assimilation by the microorganism (in words): Staphylococcus aureus aureus
Fusarium = conditions: for labeling (fluorescence, metabolic incorporation of the chemical reporter): 10 mM, 24 hours, CNCM 1149-76; for assimilation by the microorganism (in words): Fusarium
[9] = tested on: Legionella pneumophila sg6; conditions: 10 mM, 24 hours; LG 0846 3022
[10] = tested on: Acanthamoebae castellanii; conditions: for labeling (fluorescence, metabolic incorporation of the chemical reporter): 10 mM, 24 hours, ATCC 30234; for assimilation by the microorganism (in words): Acanthamoebae castellanii
Staphylococcus epidermis = conditions: for labeling (fluorescence, metabolic incorporation of the chemical reporter): 10 mM, 24 hours, Laboratory strain
Geotrichum candidum = conditions: for labeling (fluorescence, metabolic incorporation of the chemical reporter): 10 mM, 24 hours, CNCM 1447-83; for assimilation by the microorganism (in words): Geotrichum candidum
[11] = tested on: Serratia marcescens (second entry); conditions: 10 mM, 24 hours; second Serratia marcescens line (Table 1 order: Clinical strain)
[12] = tested on: Serratia marcescens (first entry); conditions: 10 mM, 24 hours; first Serratia marcescens line (Table 1 order: CIP 102446)
[13] = tested on: Staphylococcus saprophyticus; conditions: 10 mM, 24 hours; Clinical strain
Bacillus cereus paris = conditions: 10 mM, 24 hours; Laboratory strain
[14] = tested on: bacteria and Fungi as well as amoebas; test: Labeling of living microorganisms, overall statement on all tested strains; conditions: broad range of bacteria and Fungi as well as amoebas
[15] = tested on: Bacillus cereus (first entry); conditions: 10 mM, 24 hours; first Bacillus cereus line (Table 1 order: Laboratory strain)
Enterococcus durans = conditions: 10 mM, 24 hours; Laboratory strain
[16] = tested on: Bacillus cereus (second entry); conditions: 10 mM, 24 hours; second Bacillus cereus line (Table 1 order: CIP 66.24T)
Streptococcus agalactiae = conditions: 10 mM, 24 hours; Clinical strain

[N-]=[N+]=NC[C@@H](O)C1OC(O)(C(=O)O)CC(O)[C@H]1O (some centres unmarked) [Kdo-N3, reference compound]
labeling (fluorescence, metabolic incorporation of the chemical reporter) (Aspergillus niger): −
assimilation by the microorganism (in words) (Aspergillus niger): did not assimilate
labeling (fluorescence, metabolic incorporation of the chemical reporter) (Micrococcus luteus): −
assimilation by the microorganism (in words) (Micrococcus luteus): did not assimilate
labeling (fluorescence, metabolic incorporation of the chemical reporter) (Neisseria meningitides): +
labeling (fluorescence, metabolic incorporation of the chemical reporter) [1]: +
labeling (fluorescence, metabolic incorporation of the chemical reporter) [2]: +
labeling (fluorescence, metabolic incorporation of the chemical reporter) (Cronobacter sakazakii): +
labeling (fluorescence, metabolic incorporation of the chemical reporter) (Proteus mirabills): +
labeling (fluorescence, metabolic incorporation of the chemical reporter) (Acinetobacter baumannii): +
labeling (fluorescence, metabolic incorporation of the chemical reporter) [3]: +
labeling (fluorescence, metabolic incorporation of the chemical reporter) [4]: −
assimilation by the microorganism (in words) [4]: did not assimilate
labeling (fluorescence, metabolic incorporation of the chemical reporter) [5]: +
labeling (fluorescence, metabolic incorporation of the chemical reporter) (Providencia stuartii): +
labeling (fluorescence, metabolic incorporation of the chemical reporter) (Neisseria gonorrhoeae): −
assimilation by the microorganism (in words) (Neisseria gonorrhoeae): did not assimilate
labeling (fluorescence, metabolic incorporation of the chemical reporter) (Vibrio cholerae): +
labeling (fluorescence, metabolic incorporation of the chemical reporter) (Candida albicans): −
assimilation by the microorganism (in words) (Candida albicans): did not assimilate
labeling (fluorescence, metabolic incorporation of the chemical reporter) [6]: +
labeling (fluorescence, metabolic incorporation of the chemical reporter) (Escherichia coli K12): +
labeling (fluorescence, metabolic incorporation of the chemical reporter) (Escherichia coli O86): +
labeling (fluorescence, metabolic incorporation of the chemical reporter) (Enterococcus faecalis): −
assimilation by the microorganism (in words) (Enterococcus faecalis): did not assimilate
labeling (fluorescence, metabolic incorporation of the chemical reporter) (Bacillus subtilis): −
assimilation by the microorganism (in words) (Bacillus subtilis): did not assimilate
labeling (fluorescence, metabolic incorporation of the chemical reporter) (Staphylococcus aureus): −
assimilation by the microorganism (in words) (Staphylococcus aureus): did not assimilate
labeling (fluorescence, metabolic incorporation of the chemical reporter) [7]: +
labeling (fluorescence, metabolic incorporation of the chemical reporter) [8]: −
assimilation by the microorganism (in words) [8]: did not assimilate
labeling (fluorescence, metabolic incorporation of the chemical reporter) (Fusarium): −
assimilation by the microorganism (in words) (Fusarium): did not assimilate
labeling (fluorescence, metabolic incorporation of the chemical reporter) [9]: +
labeling (fluorescence, metabolic incorporation of the chemical reporter) [10]: −
assimilation by the microorganism (in words) [10]: did not assimilate
labeling (fluorescence, metabolic incorporation of the chemical reporter) (Staphylococcus epidermis): −
assimilation by the microorganism (in words) (Staphylococcus epidermis; Staphylococcus epidermis): did not assimilate
labeling (fluorescence, metabolic incorporation of the chemical reporter) (Geotrichum candidum): −
assimilation by the microorganism (in words) (Geotrichum candidum): did not assimilate
labeling (fluorescence, metabolic incorporation of the chemical reporter) [11]: +
labeling (fluorescence, metabolic incorporation of the chemical reporter) [12]: +

[N-]=[N+]=NC[C@H]1OC(O)[C@@H](O)[C@@H]1O (stereo partly drawn) [Ara-N3, 5-Azido-5-deoxy-D-arabinofuranose]
labeling (fluorescence, metabolic incorporation of the chemical reporter) (Aspergillus niger): +
assimilation by the microorganism (in words) (Aspergillus niger): assimilated
labeling (fluorescence, metabolic incorporation of the chemical reporter) (Micrococcus luteus): +
assimilation by the microorganism (in words) (Micrococcus luteus): assimilated
labeling (fluorescence, metabolic incorporation of the chemical reporter) [13]: +
labeling (fluorescence, metabolic incorporation of the chemical reporter) (Bacillus cereus paris): +
labeling (fluorescence, metabolic incorporation of the chemical reporter) (Neisseria meningitides): +
labeling (fluorescence, metabolic incorporation of the chemical reporter) [1]: +
labeling (fluorescence, metabolic incorporation of the chemical reporter) [2]: +
labeling of all tested microorganisms (in words) [14]: all tested microorganisms were labeled
labeling (fluorescence, metabolic incorporation of the chemical reporter) (Cronobacter sakazakii): +
labeling (fluorescence, metabolic incorporation of the chemical reporter) [15]: +
labeling (fluorescence, metabolic incorporation of the chemical reporter) (Proteus mirabills): +
labeling (fluorescence, metabolic incorporation of the chemical reporter) (Acinetobacter baumannii): +
labeling (fluorescence, metabolic incorporation of the chemical reporter) [3]: +
labeling (fluorescence, metabolic incorporation of the chemical reporter) [4]: +
assimilation by the microorganism (in words) [4]: assimilated
labeling (fluorescence, metabolic incorporation of the chemical reporter) (Enterococcus durans): +
labeling (fluorescence, metabolic incorporation of the chemical reporter) [5]: +
labeling (fluorescence, metabolic incorporation of the chemical reporter) (Providencia stuartii): +
labeling (fluorescence, metabolic incorporation of the chemical reporter) [16]: +
labeling (fluorescence, metabolic incorporation of the chemical reporter) (Neisseria gonorrhoeae): +
assimilation by the microorganism (in words) (Neisseria gonorrhoeae): assimilated
labeling (fluorescence, metabolic incorporation of the chemical reporter) (Vibrio cholerae): +
labeling (fluorescence, metabolic incorporation of the chemical reporter) (Candida albicans): +
assimilation by the microorganism (in words) (Candida albicans): assimilated
labeling (fluorescence, metabolic incorporation of the chemical reporter) [6]: +
labeling (fluorescence, metabolic incorporation of the chemical reporter) (Escherichia coli K12): +
labeling (fluorescence, metabolic incorporation of the chemical reporter) (Escherichia coli O86): +
labeling (fluorescence, metabolic incorporation of the chemical reporter) (Enterococcus faecalis): +
assimilation by the microorganism (in words) (Enterococcus faecalis): assimilated
labeling (fluorescence, metabolic incorporation of the chemical reporter) (Bacillus subtilis): +
assimilation by the microorganism (in words) (Bacillus subtilis): assimilated
labeling (fluorescence, metabolic incorporation of the chemical reporter) (Staphylococcus aureus): +
assimilation by the microorganism (in words) (Staphylococcus aureus): assimilated
labeling (fluorescence, metabolic incorporation of the chemical reporter) [7]: +
labeling (fluorescence, metabolic incorporation of the chemical reporter) [8]: +
assimilation by the microorganism (in words) [8]: assimilated
labeling (fluorescence, metabolic incorporation of the chemical reporter) (Fusarium): +
assimilation by the microorganism (in words) (Fusarium): assimilated
labeling (fluorescence, metabolic incorporation of the chemical reporter) [9]: +
labeling (fluorescence, metabolic incorporation of the chemical reporter) [10]: +
assimilation by the microorganism (in words) [10]: assimilated
labeling (fluorescence, metabolic incorporation of the chemical reporter) (Staphylococcus epidermis): +
labeling (fluorescence, metabolic incorporation of the chemical reporter) (Geotrichum candidum): +
assimilation by the microorganism (in words) (Geotrichum candidum): assimilated
labeling (fluorescence, metabolic incorporation of the chemical reporter) [11]: +
labeling (fluorescence, metabolic incorporation of the chemical reporter) (Streptococcus agalactiae): +
labeling (fluorescence, metabolic incorporation of the chemical reporter) [12]: +
